The results in this text go back to US4389412A, “Substituted cyclopropanecarboxylic acid esters and pesticidal compositions containing the same as active ingredient” (priority 1979, dated 1983).

≈ marks a conversion by molar mass, not a printed value. Where two headings read alike, the source gives them in different places.

The test system of data set [1] is green rice leafhoppers (Nephotettix cincticeps). Put plainly: Utility Example-6: 0.5% dust on rice seedlings, green rice leafhoppers. The settings on record: 1 kg per 10 ares, 24 hours, resistant to organophosphorus and carbamate pesticides. In kind it is in vivo. An excerpt: A 0.5% dust preparation of each of the cis- and trans-isomers and a 50:50 mixture of the cis- and trans-isomers of Compound (1) and of Compound (2) as prepared by the procedure described in Formulation Example-4 was applied to rice seedlings by means of a bell-jar duster at the rate of 1 kg per 10 ares. Then, 30 green rice leafhoppers (Nephotettix cincticeps) resistant to organophosphorus and carbamate pesticides were released. […] In all cases, the mortality was not less than 90%.

The test system of data set [2] is tobacco cutworms (Prodenia litura Fabricius). Put plainly: Mortality test with tobacco cutworms by topical application method. In kind it is in vivo. To be noted: 24 h. The procedure:
Mortality test with tobacco cutworms (Prodenia litura Fabricius) by topical application method
Using a microsyringe, 0.5 μl of the above solution was dripped onto the thoracic adbominal region of each of 3-instar tobacco cutworm (Prodenia litura Fabricius) larvae. […] The test larvae were used in groups of 20 individuals each.

Data set [3] relates to two-spotted spider mites (Tetranychus urticae Koch). Put plainly: Mortality test with two-spotted spider mites by spray application method. In kind it is in vivo. To be noted: 48 h, 200 ppm spray, two days, read-out: Percent decrease of population (%). The procedure:
Mortality test with two-spotted spider mites (Tetranychus urticae Koch) by spray application method
To a 5% aqueous solution of acetone was added dropwise a small amount of Tween-20 (polyethylene sorbitan monolaurate) as a surfactant. […] From 30 to 50 adult two-spotted spider mites (Tetranychus urticae Koch) were released on the leaves of kidney-bean plants in the dicotyledonous stage in a pot 9 cm in diameter, followed by a spray application of the above solution. The pot was kept in a constant-temperature chamber at 26° C. and two days later the mites were examined for deaths. The percent decrease of population was then calculated.

In a further data set the test system is carp and water flea. Put plainly: Fish toxicity ranking according to Japanese regulations. To be noted: from TLm for carp and water flea. The arrangement: species or system Cyprinus carpio L; Daphnia pulex. Put shortly:
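Ranking per Japanese agrochemical regulations from median tolerance limits: A = carp TLm (48 hrs.) >10 ppm and water flea TLm (3 hrs.) >0.5 ppm; B = carp 10-0.5 ppm, or carp >10 ppm with water flea <0.5 ppm; C = carp TLm (48 hrs.) <0.5 ppm.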

Another data set relates to fish. In words: Fish toxicity safety factor (TLm divided by maximum concentration in cover water). The arrangement: species or system carp. Put shortly: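 Calculated index: carp TLm (ppm) divided by the maximum compound concentration expected in paddy cover water. That concentration assumes 100 l of solution at the pest LC50 applied per 10 ares onto 5 cm deep cover water, all of it entering the water.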

A short description of data set [4]: Fish toxicity test with killifish. In kind it is in vivo, Orizias latipes. The settings on record: water, killifish, 25±1° C., read-out: TLm (48 hrs.). Put shortly: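 Test compound dispensed from acetone solution into water at set concentrations; ten aerated-water killifish (~0.25 g, ~2.5 cm) held at 25±1° C. Deaths scored after 48 hours; TLm (median tolerance limit, ppm) determined.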

Data set [5] relates to green rice leafhoppers (Nephotettix cincticeps Uhler). Put plainly: Utility Example-2: spray on rice plants, green rice leafhoppers. The settings on record: 7 ml/pot, 24 hours. Format: in vivo. The procedure:
A 30% emulsifiable concentrate of each of the cis- and trans-isomers and a 50:50 mixture of the cis- and trans-isomers of Compound (1) and Compound (2) as prepared by the procedure described in Formulation Example-1 was diluted with water to a concentration of 80 ppm as active compound. Rice plants 4 weeks after sowing in pots (each pot 6 cm in diameter, 7 seedlings) were sprayed with the above solution at the rate of 7 ml/pot and, after drying in the air, each pot was covered with a wire-mesh cage. Then, 20 female adult green rice leafhoppers (Nephotettix cincticeps Uhler) were released into the cage. The caged pots were kept in a constant-temperature chamber at 25° C. […] In all groups, the mortality values were not less than 90%.

Data set [6] relates to brown planthoppers (Nilaparvata lugens Stal). In words: Utility Example-1: LC50 on adult brown planthoppers on dipped rice plants. To be noted: Nilaparvata lugens, 24 h, 25° C., read-out: Pesticidal activity LC50. Format: in vivo. Put shortly:
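Rice plants 4 weeks from sowing were dipped in water-diluted 1% emulsifiable concentrate at set concentrations and air-dried. Thirty adult N. lugens were caged on each pot, held at 25 °C.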

Data set [7] can be described thus: Acute toxicity test in rat by the oral route. In kind it is in vivo. To be noted: in vivo, male rat, in olive oil, after 7 days. An excerpt:
Acute toxicity test in rat by the oral route

Where [8] appears, read: read-out: Pesticidal effect, tobacco cutworm.

`C#CC(OC(=O)[C@@H]1[C@@H](C=C(Cl)Cl)C1(C)C)c1cccc(Oc2ccc(Cl)cc2)c1` (relative stereo) [Compound (2) trans-]: the mortality result in data set [1] is “not less than 90%”. The mortality at 0.0001 mg in [2] stood at 100%. The mortality at 200 ppm in [3] was found to be 100%. In the data set with carp and water flea, the Ranking entry was “A (TLm (48 hrs.) value >10 ppm for carp and TLm (3 hrs.) value >0.5 ppm for water flea, wherein toxicity to fishes is not observed by usual application.)”. Also, the “concentration which kills 50% of pests as fraction of concentration which kills 50% of fish” value with fish is reported as “less than 1/28”. Moreover, the LC50 at 48 h in data set [4] was above 10 µg/mL. This molecule had a mortality at 80 ppm in data set [5] of at least 90%. Moreover, the LC50 in data set [6] was found to be 180 µg/mL (≈ 400 µM).
For the molecule `C#CC(OC(=O)[C@@H]1[C@H](C=C(Cl)Cl)C1(C)C)c1cccc(Oc2ccc(Cl)cc2)c1` (relative stereo) [Compound (2) cis-], in data set [1], the mortality entry is recorded as “not less than 90%”. Besides, in data set [2], the mortality at 0.0001 mg came to 100%. In addition, in data set [3], the mortality at 200 ppm turned out to be 100%. For the same molecule, the Ranking entry with carp and water flea was “B (TLm (48 hrs.) value 10-0.5 ppm for carp; or TLm (48 hrs.) value >10 ppm for carp and TLm (3 hrs.) value <0.5 ppm for water flea, wherein appreciable toxicity to fishes is not observed by usual application but may be observed when applied to wide area at one time.)”. The LC50 at 48 h in data set [4] is above 10 µg/mL. Further, in data set [5], the mortality at 80 ppm is at least 90%. The LC50 in [6] was 200 µg/mL (≈ 445 µM).
Turning to `C#CC(OC(=O)C1C(C=C(Cl)Cl)C1(C)C)c1cccc(Oc2ccc(Cl)cc2)c1` (stereo not drawn) [Compound (2) cis-/trans- = 50:50, 3-(4-chlorophenoxy)-α-ethynylbenzyl 2,2-dimethyl-3-(2,2-dichlorovinyl)cyclopropanecarboxylate], the mortality result in data set [1] is “not less than 90%”. In addition, the mortality at 0.0001 mg in [2] and in [2] (setting [8]) was 100% in each case. The mortality at 200 ppm in data set [3] was found to be 100%. In addition, the Ranking entry in the data set on carp and water flea is “B (TLm (48 hrs.) value 10-0.5 ppm for carp; or TLm (48 hrs.) value >10 ppm for carp and TLm (3 hrs.) value <0.5 ppm for water flea, wherein appreciable toxicity to fishes is not observed by usual application but may be observed when applied to wide area at one time.)”. Besides, the “Fish toxicity safety factor” value in the data set with fish (TLm / maximum concentration in cover water at LC50 application (100 l per 10 ares, 5 cm depth)) is given as 7.4. In data set [4], the LC50 at 48 h is above 10 µg/mL. Besides, in [7], the LD50 (commonly the dose expected to kill half of the subjects tested) at 168 h was above 3000 mg/kg. The molecule further yielded a mortality at 80 ppm in data set [5] of at least 90%. The LC50 in [6] is 190 µg/mL (≈ 422 µM).
As for `CC1(C)[C@@H](C=C(Cl)Cl)[C@@H]1C(=O)OCc1cccc(Oc2ccc(Cl)cc2)c1` (relative stereo) [Compound (1) trans-, 3-(4-chlorophenoxy)benzyl trans-2,2-dimethyl-3-(2,2-dichlorovinyl)cyclopropanecarboxylate], in [1], the mortality result is “not less than 90%”. The molecule also came in with a mortality at 0.0001 mg in data set [2] of 100%. Besides, the mortality at 200 ppm in data set [3] was 100%. Also, the Ranking result in the data set with carp and water flea is “B (TLm (48 hrs.) value 10-0.5 ppm for carp; or TLm (48 hrs.) value >10 ppm for carp and TLm (3 hrs.) value <0.5 ppm for water flea, wherein appreciable toxicity to fishes is not observed by usual application but may be observed when applied to wide area at one time.)”. Moreover, in data set [4], the LC50 at 48 h was above 10 µg/mL. For the same molecule, the mortality at 80 ppm in data set [5] was at least 90%. In addition, the LC50 in data set [6] turned out to be 650 µg/mL (≈ 1530 µM).
In the case of `CC1(C)C(C=C(Cl)Cl)C1C(=O)OCc1cccc(Oc2ccccc2)c1` (stereo not drawn) [Compound (B), Permethrin], the mortality at 0.0001 mg in data set [2] and in data set [2] (setting [8]) was 85% each time. For the same molecule, the mortality at 200 ppm in data set [3] came out at 100%. Besides, in the data set with carp and water flea, the Ranking entry is “C (TLm (48 hrs.) value <0.5 ppm for carp, wherein toxicity to fishes is so strongly observed by usual application that both the application method and application area are strictly restricted.)”. Further, the LC50 at 48 h in [4] came to 0.04 µg/mL (≈ 0.102 µM). For the same molecule, the LD50 at 168 h in data set [7] worked out at 300 mg/kg. Moreover, the LC50 in [6] was 700 µg/mL (≈ 1790 µM).
